According to patent US11899025B2, “Pharmaceutical composition for preventing or treating neurodegenerative diseases comprising COX2 acetylating agent as active ingredient” (KYUNGPOOK NATIONAL UNIVERSITY INDUSTRY-ACADEMIC COOPERATION …, priority 2018, dated 2024):

Experiments:
[1] = test system: APP/PS1 mice; experiment: Alzheimer's animal model (APP/PS1 mice): immunofluorescence, Thioflavin S, Morris Water Maze; type: in vivo, mouse; conditions: 7-month-old APP/PS1 mice, 5 mg/kg N-acetyl sphingosine, 1 mg/kg FTY720 or 3 uM S1P daily for 4 weeks, intraperitoneal; for microglia (Iba1) in brain cortex vs APP/PS1 mice: FIG. 9a; for astrocytes (GFAP) in brain cortex vs APP/PS1 mice: FIG. 9b; for amount of Aβ / Aβ deposition (Thioflavin S) vs APP/PS1 mice: FIG. 9c; for memory and cognition (Morris Water Maze) vs APP/PS1 mice: FIG. 9d
Excerpt: It has been approved for mouse experiments by the Kyungpook National University Institutional Animal Care and Use Committee (IACUC). A transgenic mouse line overexpressing APPswe (hAPP695swe) or PS1 (presenilin-1M146V) based on C57BL/6 mice (Charles River, UK) was used. [Hereinafter, APP mouse: mouse overexpressing APPswe, PS1 mouse: mouse overexpressing presenilin-1M146V; GlaxoSmithKline]. As an Alzheimer's (AD) animal model, SphK1 tg (SphK1 gene overexpressing mouse) was crossed with APP mice and APP/PS1 mice to prepare APP/PS1/SphK1 tg mice. Niemanpick (NP-C) animal model, Balb/C (Orient, Wild type), NPC mutant mouse lacking NPC1 gene (Provided by Riken, Japan, NP-C mice; less weight than normal mice of the same age, and severe motor function loss from 4 to 6 weeks of age, limb tremors and seizures appear, and lifespan is approximately 9 to 10 weeks. Is) was used. As an animal model for amyotrophic lateral sclerosis (ALS), a transgenic mouse (FUS) line overexpressing RUS R521C based on C57BL/6 mice (Charles River, UK) was used.
After fixing the cerebral and hippocampus of the mouse, anti-20G10 (mouse, 1:1000) against amyloid-β (Aβ) 42 and anti-G30 (rabbit, 1:1000) against Aβ 40, anti-MAP2 (chicken, 1:2000), anti-Synaptophysin (mouse, 1:100), anti-Synapsin1 (rabbit, 1:500), anti-PSD95 (mouse, 1:100), anti-Iba-1 (rabbit, 1:500), Anti-GFAP (rabbit, 1:500) was cultured together. The site was analyzed using a laser scanning confocal microscope or Olympus BX51 microscope equipped with Fluoview SV1000 imaging software (Olympus FV1000, Japan). Metamorph software (Molecular Devices) was used to quantify the percentage of the area of the stained area relative to the area of the total tissue.
In order to confirm the potential effect on learning and memory, MWM (Morris water maze) and fear conditioning experiments were performed. MWM learned the task 4 times a day for 10 days for the mice, the platform was removed on the 11th day, and a probe trial was performed. On the first day of Fear conditioning, the mice were placed in a conditioning chamber, and sound stimulation (10 kHz, 70 dB) and electrical stimulation (0.3 mA, 1 s) were given. On the second day, memory for the space was checked without stimulation in the same conditioning chamber as on the first day, and on the third day, a memory test for fear was performed when only sound stimulation was given in another conditioning chamber. An open field test was performed to evaluate motor ability and immediate activity. In the open field test, the mice were placed in a square box for 10 minutes to measure the overall exercise power, time, and distance.
(§1) In order to measure the neuroinflammatory resolution factor, after culturing neurons from mouse cerebrum, CM was prepared by treatment with 10 nM N-acetyl sphingosine 1 phosphate (Toronto Research chemicals, C262710) and N-acetyl sphingosine (Sigma, 01912). For COX2 acetylation analysis, neurons were cultured from mouse cerebrum and then treated with 2 uCi [^14C]N-acetyl sphingosine (ARC, ARC1024). In addition, for in vivo experiments, 7-month-old APP/PS1 mice were injected with 5 mg/kg N-acetyl sphingosine (Sigma, 01912), 1 mg/kg FTY720 and 3 uM S1P daily for 4 weeks via intraperitoneal injection. 1 month-old NPC mice were injected with 5 mg/kg N-acetyl sphingosine (Sigma, 01912) and 2-month-old FUS mice with 30 mg/kg N-acetyl sphingosine (Sigma, 01912) daily for 4 weeks via subcutaneous injection.
The present inventors confirmed AD lesions by injecting N-acetyl sphingosine, one of the COX2 acetylating agents identified through the above experiment, into an APP/PS1 animal model. First, in order to determine the effect of N-acetyl sphingosine on the neuroinflammatory response by secreting neuroinflammatory resolution factor, changes in microglia and astrocytes were observed. […]

[2] = test system: APP/PS1 neurons; experiment: neuroinflammatory resolution factor (SPMs) secretion in APP/PS1 neurons after COX2 acetylating agent treatment; type: cell-based, mouse; conditions: 10 nM; FIG. 8b
Protocol: A commercially available ELISA kit (Biosource) was used, and the hemispheres of mice were homogenized and placed in a buffer containing 0.02M guanidine to prepare a sample for Aβ ELISA. In order to measure the neuroinflammatory resolution factor, conditioned media (CM) was prepared after culturing neurons from mouse cerebrum. Thereafter, according to the manufacturer's manual, ELISA for Aβ and SPM was performed.
as §1
First, in order to confirm whether the selected compounds promote the secretion of neuroinflammatory resolution factor in neurons, after treatment with N-acetyl sphingosine 1 phosphate or N-acetyl sphingosine in APP/PS1 neurons, the expression levels of neuroinflammatory resolution factor were confirmed. As a result, it was confirmed that the expression levels of LxA4 and RvE1 in neurons of APP/PS1 mice were recovered when treated with N-acetyl sphingosine 1 phosphate or N-acetyl sphingosine (FIG. 8b).

[3] = target: SphK1 (Homo sapiens, UniProt Q9NYA1); experiment: dissociation of acetyl-CoA from the acetyl-CoA:SphK1 complex, equilibrium dialysis; type: binding
[4] = substrate: CC(=O)SCCNC(=O)CCNC(=O)[C@H](O)C(C)(C)COP(=O)(O)OP(=O)(O)OC[C@H]1O[C@@H](n2cnc3c(N)ncnc32)[C@H](O)[C@@H]1OP(=O)(O)O; experiment: purified protein, by the assay type; conditions: other: in the presence of 10 mM sphingosine; [3H]acetyl-CoA; FIG. 1a

| Molecule | microglia (Iba1) in brain cortex vs APP/PS1 mice [1] | astrocytes (GFAP) in brain cortex vs APP/PS1 mice [1] | amount of Aβ / Aβ deposition (Thioflavin S) vs APP/PS1 mice [1] | memory and cognition (Morris Water Maze) vs APP/PS1 mice [1] | further results |
| --- | --- | --- | --- | --- | --- |
| CCCCCCCCc1ccc(CCC(N)(CO)CO)cc1 [FTY720] | no difference | no difference | no effect | no effect | – |
| CCCCCCCCCCCCC/C=C/[C@@H](O)[C@H](COP(=O)(O)O)NC(C)=O [N-acetyl sphingosine 1 phosphate] | – | – | – | – | expression level of LxA4 in neurons of APP/PS1 mice [2]: recovered; expression level of RvE1 in neurons of APP/PS1 mice [2]: recovered |
| CCCCCCCCCCCCC/C=C/[C@@H](O)[C@@H](N)COP(=O)(O)O [S1P, sphingosine-1-phosphate] | no difference | no difference | no effect | no effect | – |
| CC(=O)SCCNC(=O)CCNC(=O)[C@H](O)C(C)(C)COP(=O)(O)OP(=O)(O)OC[C@H]1O[C@@H](n2cnc3c(N)ncnc32)[C@H](O)[C@@H]1OP(=O)(O)O [acetyl-CoA] | – | – | – | – | Kd [3]: 6.8 µM |
| SphK1 (Homo sapiens) (protein) MDPAGGPRGVLPRPCRVLVLLNPRGGKGKALQLFRSHVQPLLAEAEISFTLMLTERRNHARELVRSEELGRWDALVVMSGDGLMHEVVNGLMERPDWETAIQKPLCSLPAGSGNALAASLNHYAGYEQVTNEDLLTNCTLLLCRRLLSPMNLLSLHTASGLRLFSVLSLAWGFIADVDLESEKYRRLGEMRFTLGTFLRLAALRTYRGRLAYLPVGRVGSKTPASPVVVQQGPVDAHLVPLEEPVPSHWTVVPDEDFVLVLALLHSHLGSEMFAAPMGRCAAGVMHLFYVRAGVSRAMLLRLFLAMEKGRHMEYECPYLVYVPVVAFRLEPKDGKGVFAVDGELMVSEAVQGQVHPNYFWMVSGCVEPPPSWKPQQMPPPEEPL | – | – | – | – | Km [4]: 58.2 µM; kcat [4]: 0.000308 s⁻¹ |
